In PubChem BioAssay (NCI):
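These data come from cells grown in 96-well plates and exposed to compound for 48 hours at five concentrations. GI50 = concentration required for 50% inhibition of growth. Definition used: TGI = concentration required for complete inhibition of growth.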

Assays:
Test in all cases: growth of human tumour cells (NCI), 48 h
[1] = system: NCI-H522 lung
[2] = system: CCRF-CEM leukemia
[3] = system: MOLT-4 leukemia
[4] = system: HS 578T breast
[5] = system: SF-539 CNS
[6] = system: LOX IMVI melanoma
[7] = system: BT-549 breast
[8] = system: OVCAR-4 ovarian
[9] = system: SF-268 CNS
[10] = system: KM12 colon
[11] = system: RPMI-8226 leukemia
[12] = system: SN12C renal
[13] = system: HCT-116 colon
[14] = system: SK-MEL-28 melanoma
[15] = system: CAKI-1 renal
[16] = system: NCI-H226 lung
[17] = system: NCI/ADR-RES ovarian
[18] = system: SR leukemia
[19] = system: NCI-H23 lung
[20] = system: SK-MEL-5 melanoma
[21] = system: UACC-257 melanoma
[22] = system: HCT-15 colon
[23] = system: A549 NSCLC
[24] = system: SK-OV-3 ovarian
[25] = system: PC-3 prostate
[26] = system: MDA-MB-435
[27] = system: IGROV1 ovarian
[28] = system: OVCAR-3 ovarian
[29] = system: NCI-H460 lung
[30] = system: SW-620 colon
[31] = system: SNB-19 CNS
[32] = system: HT29 colon
[33] = system: SNB-75 CNS
[34] = system: U251 CNS
[35] = system: OVCAR-5 ovarian
[36] = system: 786-0 renal
[37] = system: RXF 393 renal
[38] = system: SF-295 CNS
[39] = system: EKVX NSCLC
[40] = system: HOP-92 NSCLC
[41] = system: HOP-62 NSCLC
[42] = system: T-47D breast
[43] = system: UACC-62 melanoma
[44] = system: OVCAR-8 ovarian
[45] = system: SK-MEL-2 melanoma
[46] = system: MCF7 breast
[47] = system: A498 renal
[48] = system: DU-145 prostate
[49] = system: ACHN renal
[50] = system: HL-60(TB) leukemia
[51] = system: M14 melanoma
[52] = system: TK-10 renal
[53] = system: UO-31 renal
[54] = system: HCC-2998 colon
[55] = system: COLO 205 colon
[56] = system: MDA-MB-231 breast
[57] = system: K-562 leukemia
[58] = system: MALME-3M melanoma

CCN(Cc1nc2cc(C(F)(F)F)ccc2nc1-c1ccccc1)c1ccc(OC)c(OC)c1
GI50 [1]: 14.5 µM
TGI [1]: 34 µM
GI50 [2]: 4.74 µM
TGI [2]: 24.7 µM
GI50 [3]: 11.8 µM
TGI [3]: 52.1 µM
GI50 [4]: 11.4 µM
TGI [4]: 30 µM
GI50 [5]: 15.9 µM
TGI [5]: 33.1 µM
GI50 [6]: 14.2 µM
TGI [6]: 27.2 µM
GI50 [7]: 13.4 µM
TGI [7]: 31.7 µM
GI50 [8]: 41.2 µM
TGI [8]: > 100 µM
GI50 [9]: 26.1 µM
TGI [9]: > 100 µM
GI50 [10]: 19.9 µM
TGI [10]: 43.6 µM
GI50 [11]: 2.51 µM
TGI [11]: 11.2 µM
GI50 [12]: 14.9 µM
TGI [12]: 29.6 µM
GI50 [13]: 11.1 µM
TGI [13]: 23.2 µM
GI50 [14]: 25.2 µM
TGI [14]: 76 µM
GI50 [15]: 17.4 µM
TGI [15]: 64.2 µM
GI50 [16]: 13.2 µM
TGI [16]: 29 µM
GI50 [17]: 29.2 µM
TGI [17]: > 100 µM
GI50 [18]: 7.61 µM
TGI [18]: 31.2 µM
GI50 [19]: 13.5 µM
TGI [19]: 34.2 µM
GI50 [20]: 13.9 µM
TGI [20]: 28 µM
GI50 [21]: 0.0249 µM
TGI [21]: 0.793 µM
GI50 [22]: 16.3 µM
TGI [22]: 34.5 µM
GI50 [23]: 0.369 µM
TGI [23]: 16.3 µM
GI50 [24]: 39.8 µM
TGI [24]: > 100 µM
GI50 [25]: 7.33 µM
TGI [25]: 22 µM
GI50 [26]: 16.4 µM
TGI [26]: 32.4 µM
GI50 [27]: 16.8 µM
TGI [27]: 33.7 µM
GI50 [28]: 13.1 µM
TGI [28]: 26.5 µM
GI50 [29]: 22.2 µM
TGI [29]: > 100 µM
GI50 [30]: 16.6 µM
TGI [30]: 36.5 µM
GI50 [31]: 24.6 µM
TGI [31]: 50.4 µM
GI50 [32]: 14.9 µM
TGI [32]: > 100 µM
GI50 [33]: 24.5 µM
TGI [33]: 71.7 µM
GI50 [34]: 6.49 µM
TGI [34]: 19.1 µM
GI50 [35]: 21.6 µM
TGI [35]: 46 µM
GI50 [36]: 15.7 µM
TGI [36]: 30.3 µM
GI50 [37]: 0.312 µM
TGI [37]: 9.09 µM
GI50 [38]: 15.7 µM
TGI [38]: 31.8 µM
GI50 [39]: 20.1 µM
TGI [39]: 73.6 µM
GI50 [40]: 15 µM
TGI [40]: 30.4 µM
GI50 [41]: 15.1 µM
TGI [41]: 29.1 µM
GI50 [42]: 18.5 µM
TGI [42]: 61.2 µM
GI50 [43]: 14.1 µM
TGI [43]: 27.7 µM
GI50 [44]: 1.51 µM
TGI [44]: 18.7 µM
GI50 [45]: 16.7 µM
TGI [45]: 34.7 µM
GI50 [46]: 25.9 µM
TGI [46]: > 100 µM
GI50 [47]: 4.42 µM
TGI [47]: 20.7 µM
GI50 [48]: 14.5 µM
TGI [48]: 31.9 µM
GI50 [49]: 16.4 µM
TGI [49]: 44 µM
GI50 [50]: 4.46 µM
TGI [50]: 17.6 µM
GI50 [51]: 15.4 µM
TGI [51]: 29.5 µM
GI50 [52]: 28 µM
TGI [52]: 82.3 µM
GI50 [53]: 19.8 µM
TGI [53]: 46.2 µM
GI50 [54]: 16.7 µM
TGI [54]: 34.4 µM
GI50 [55]: 31.4 µM
TGI [55]: > 100 µM
GI50 [56]: 12.7 µM
TGI [56]: 29.2 µM
GI50 [57]: 6.72 µM
TGI [57]: 24.6 µM

C#CCOc1ccc2ncnc(Nc3ccc(NC(=O)CCl)cc3)c2c1
GI50 [1]: 2 µM
TGI [1]: 4.27 µM
GI50 [2]: 2.38 µM
TGI [2]: 12.2 µM
GI50 [3]: 3.19 µM
TGI [3]: 17.7 µM
GI50 [4]: 5.61 µM
TGI [4]: 61.7 µM
GI50 [5]: 2.89 µM
TGI [5]: 10.6 µM
GI50 [6]: 1.5 µM
TGI [6]: 3.43 µM
GI50 [7]: 3.81 µM
TGI [7]: 16.6 µM
GI50 [8]: 11.9 µM
TGI [8]: 39.2 µM
GI50 [9]: 4.67 µM
TGI [9]: 22.3 µM
GI50 [10]: 8.54 µM
TGI [10]: 23.7 µM
GI50 [58]: 4.58 µM
TGI [58]: 18.1 µM
GI50 [11]: 3.88 µM
TGI [11]: 18.1 µM
GI50 [12]: 6.4 µM
TGI [12]: 36.9 µM
GI50 [13]: 3.68 µM
TGI [13]: 14.9 µM
GI50 [14]: 14.5 µM
TGI [14]: 79.6 µM
GI50 [15]: 11.3 µM
TGI [15]: 23.6 µM
GI50 [16]: 17.8 µM
TGI [16]: 68.6 µM
GI50 [17]: 3.76 µM
TGI [17]: 36.4 µM
GI50 [18]: 2.69 µM
TGI [18]: 15 µM
GI50 [19]: 3.85 µM
TGI [19]: 18.4 µM
GI50 [20]: 3.87 µM
TGI [20]: 15.5 µM
GI50 [21]: 15.5 µM
TGI [21]: 38.4 µM
GI50 [22]: 2.96 µM
TGI [22]: 19.2 µM
GI50 [23]: 13.4 µM
TGI [23]: 39.7 µM
GI50 [24]: 12.5 µM
TGI [24]: 38.6 µM
GI50 [25]: 8.1 µM
TGI [25]: 27.6 µM
GI50 [26]: 2.67 µM
TGI [26]: > 100 µM
GI50 [27]: 3.15 µM
TGI [27]: 10.9 µM
GI50 [28]: 4.68 µM
TGI [28]: 17.2 µM
GI50 [29]: 10.6 µM
TGI [29]: 30.1 µM
GI50 [30]: 3.48 µM
TGI [30]: 13.3 µM
GI50 [31]: 8.43 µM
TGI [31]: 22.3 µM
GI50 [32]: 4.22 µM
TGI [32]: 16 µM
GI50 [34]: 2.08 µM
TGI [34]: 5.99 µM
GI50 [35]: 16.8 µM
TGI [35]: 44.7 µM
GI50 [36]: 4.36 µM
TGI [36]: 16 µM
GI50 [37]: 4.64 µM
TGI [37]: 17.9 µM
GI50 [38]: 10.1 µM
TGI [38]: 24.5 µM
GI50 [39]: 10.9 µM
TGI [39]: 33.2 µM
GI50 [40]: 12.2 µM
TGI [40]: 27.9 µM
GI50 [41]: 13.8 µM
TGI [41]: 37.1 µM
GI50 [42]: 8.4 µM
TGI [42]: 31.9 µM
GI50 [43]: 8.97 µM
TGI [43]: 27.4 µM
GI50 [44]: 5.15 µM
TGI [44]: 63.4 µM
GI50 [45]: 12.6 µM
TGI [45]: 57.3 µM
GI50 [46]: 3.61 µM
TGI [46]: 15.9 µM
GI50 [47]: 10.6 µM
TGI [47]: 24 µM
GI50 [48]: 11.7 µM
TGI [48]: 24 µM
GI50 [49]: 11 µM
TGI [49]: 23.3 µM
GI50 [50]: 5.91 µM
TGI [50]: 25.2 µM
GI50 [51]: 9.4 µM
TGI [51]: 27.7 µM
GI50 [52]: 13.7 µM
TGI [52]: 42.7 µM
GI50 [53]: 8.45 µM
TGI [53]: 22.2 µM
GI50 [54]: 13.7 µM
TGI [54]: 27.1 µM
GI50 [55]: 13.8 µM
TGI [55]: 31.5 µM
GI50 [56]: 4.51 µM
TGI [56]: 20 µM
